Test results taken from patent US10888519B2, “Immediate release pharmaceutical composition of iron chelating agents” (Jubilant Generics Limited, priority 2016, dated 2021).

Columns and labels:
[1] = cited from earlier work
[2] = Bulk density, tapped density and flow properties (Hausner Ratio, Compressibility Index); assay type: physicochemical; conditions: for Hausner Ratio: tapped density / bulk density
Experimental: The composition of present invention were analyzed for bulk and tapped density and flow properties such as Hausner Ratio, Compressibility Index. Bulk Density and Tapped Density is determined using the standard method of Test 616 (Bulk Density and Tapped Density) of USP 32. The Hausner ratio may be calculated using formula ptap/pbulk where ptap represents tapped density of granulate mass and pbulk represents the loose bulk density of granulate mass. A Hausner ratio of <1.25 indicates a powder that is free flowing whereas >1.25 indicates poor flowability. Compressibility index is indirect measure of the flowability of the powder and it is determined according to US Pharmacopeia General Chapter <1174>. The smaller the compressibility index the better the flow properties. For example 5-15 indicates excellent, 12-16 good, 18-21 fair and >23 poor flow.

[3] = listed as Active Pharmaceutical Ingredient

SMILES: O=C(O)c1ccc(-n2nc(-c3ccccc3O)nc2-c2ccccc2O)cc1 [Deferasirox, 4-[3,5-bis(2-hydroxyphenyl)-1H-1,2,4-triazol-1-yl]benzoic acid]
- solubility in water [1]: poorly soluble in water
- Tapped Density [2]: 0.300 g/mL
- bulk density ([2]; API prior to granulation versus composition): about 0.185 g/mL
- bulk density ([2]; Table 4): 0.185 g/mL
- Compressibility Index (%) ([2]; listed as API): about 38.33%
- Compressibility Index (%) [2, 3]: 38.33% (Very Poor)
- Hausner Ratio ([2]; listed as API): about 1.62
- Hausner Ratio [2, 3]: 1.62 (Very Poor)
